We go through 19 molecules from patent US12528826B2, “[1,4]oxazepino[2,3-c]quinolinone derivatives as BCL6 inhibitors” (Cancer Research Technology Limited, priority 2019, dated 2026).

The target in the first assay is T1, Trx-6×His-BCL6 (human BCL6 BTB domain covering amino-acid sequence 5-129) (Homo sapiens, UniProt P41182).
T1 construct: made in house
Kind of assay: HTRF assay (BCL6 / BCOR peptide). In kind it is binding. The following applies: 1 nM Trx-6×His-BCL6, 300 nM BCOR-AF633 peptide, 2 hours incubation at room temperature. On the procedure:
After 2 hours incubation at room temperature the plate was read on a Pherastar FSX (BMG Labtech) plate reader equipped with 337 nm laser excitation filter, a first emission filter at 620 nm and a second emission filter at 665 nm. The % inhibition at each concentration was calculated by normalising FRET ratio to the appropriate high (DMSO with all reagents) and low (DMSO without BCL6) controls.
A general note: TR-FRET usually uses a lanthanide donor and a delayed reading to cut background.
Turning to `Cn1c(=O)c2c(c3cc(Nc4nc(N5C[C@@H](O)C[C@@H](F)C5)ncc4Cl)ccc31)N[C@@H](C1CC1)C(F)(F)CO2` [Example 9a, (S)-10-((5-chloro-2-((3S,5R)-3-fluoro-5-hydroxypiperidin-1-yl)pyrimidin-4-yl)amino)-2-cyclopropyl-3,3-difluoro-7-methyl-1,2,3,4-tetrahydro-[1,4]oxazepino[2,3-c]quinolin-6(7H)-one: (S)-10-((5-chloro-2-((3R,5S)-3-fluoro-5-hydroxypiperidin-1-yl)pyrimidin-4-yl)amino)-2-cyclopropyl-3,3-difluoro-7-methyl-1,2,3,4-tetrahydro-[1,4]oxazepino[2,3-c]quinolin-6(7H)-one (1:1)], the “HTRF avg pIC50” value worked out at 8.60.

Regarding `Cn1c(=O)c2c(c3cc(Nc4ccnc(Cl)c4Cl)ccc31)N[C@@H](C1CC1)C(F)(F)CO2` [Example 4c, (S)-2-cyclopropyl-10-((2,3-dichloropyridin-4-yl)amino)-3,3-difluoro-7-methyl-1,2,3,4-tetrahydro-[1,4]oxazepino[2,3-c]quinolin-6(7H)-one], the “HTRF avg pIC50” value is given as 7.86.

Staying with this assay, now noted: 1 nM Trx-6×His-BCL6, 300 nM BCOR-AF633 peptide, 2 hours incubation at room temperature; read-out: HTRF avg pIC50 (converted).
As to `Cn1c(=O)c2c(c3cc(Nc4nc(N5CC(CC#N)C5)ncc4Cl)ccc31)N[C@@H](C1CC1)C(F)(F)CO2` [Example 11t, (S)-2-(1-(5-chloro-4-((2-cyclopropyl-3,3-difluoro-7-methyl-6-oxo-1,2,3,4,6,7-hexahydro-[1,4]oxazepino[2,3-c]quinolin-10-yl)amino)pyrimidin-2-yl)azetidin-3-yl)acetonitrile], the IC50 is 3.47 nM.

Take `Cn1c(=O)c2c(c3cc(Nc4nc(N5CCCC(C(F)F)C5)ncc4Cl)ccc31)N[C@@H](C1CC1)C(F)(F)CO2` (mixture of isomers) [Example 11r, (S)-10-((5-chloro-2-((R)-3-(difluoromethyl)piperidin-1-yl)pyrimidin-4-yl)amino)-2-cyclopropyl-3,3-difluoro-7-methyl-1,2,3,4-tetrahydro-[1,4]oxazepino[2,3-c]quinolin-6(7H)-one:(S)-10-((5-chloro-2-((S)-3-(difluoromethyl)piperidin-1-yl)pyrimidin-4-yl)amino)-2-cyclopropyl-3,3-difluoro-7-methyl-1,2,3,4-tetrahydro-[1,4]oxazepino[2,3-c]quinolin-6(7H)-one (1:1)]: the IC50 is 10 nM.

On to `CN(C)C(=O)C1CC(F)CN(c2ncc(Cl)c(Nc3ccc4c(c3)c3c(c(=O)n4C)OCC(F)(F)[C@H](C4CC4)N3)n2)C1` (stereo partly drawn) [Example 12x39, 1-(5-chloro-4-(((S)-2-cyclopropyl-3,3-difluoro-7-methyl-6-oxo-1,2,3,4,6,7-hexahydro-[1,4]oxazepino[2,3-c]quinolin-10-yl)amino)pyrimidin-2-yl)-5-fluoro-N,N-dimethylpiperidine-3-carboxamide], for which the IC50 is 2.51 nM.

Consider `Cn1c(=O)c2c(c3cc(Nc4nc(N5CC(CO)C5)ncc4Cl)ccc31)N[C@@H](C1CC1)C(F)(F)CO2` [Example 12x32, (S)-10-((5-chloro-2-(3-(hydroxymethyl)azetidin-1-yl)pyrimidin-4-yl)amino)-2-cyclopropyl-3,3-difluoro-7-methyl-1,2,3,4-tetrahydro-[1,4]oxazepino[2,3-c]quinolin-6(7H)-one], for which the IC50 is 3.72 nM.

Take `Cn1c(=O)c2c(c3cc(Nc4nc(NCC(C)(C)O)ncc4Cl)ccc31)N[C@@H](C1CC1)C(F)(F)CO2` [Example 1d, (S)-10-((5-chloro-2-((2-hydroxy-2-methylpropyl)amino)pyrimidin-4-yl)amino)-2-cyclopropyl-3,3-difluoro-7-methyl-1,2,3,4-tetrahydro-[1,4]oxazepino[2,3-c]quinolin-6(7H)-one]: the IC50 was 3.63 nM.

With `Cn1c(=O)c2c(c3cc(Nc4nc(N5CC[C@@H](F)[C@H](F)C5)ncc4Cl)ccc31)N[C@@H](C1CC1)C(F)(F)CO2` (racemic) [Example 10b, (S)-10-((5-chloro-2-((3S,4S)-3,4-difluoropiperidin-1-yl)pyrimidin-4-yl)amino)-2-cyclopropyl-3,3-difluoro-7-methyl-1,2,3,4-tetrahydro-[1,4]oxazepino[2,3-c]quinolin-6(7H)-one; (S)-10-((5-chloro-2-((3R,4R)-3,4-difluoropiperidin-1-yl)pyrimidin-4-yl)amino)-2-cyclopropyl-3,3-difluoro-7-methyl-1,2,3,4-tetrahydro-[1,4]oxazepino[2,3-c]quinolin-6(7H)-one], the IC50 was 15.8 nM.

In the case of `CC1CN(c2ncc(Cl)c(Nc3ccc4c(c3)c3c(c(=O)n4C)OCC(F)(F)[C@H](C4CC4)N3)n2)CC(C)S1` (stereo partly drawn) [Example 12x06, (2S)-10-((5-chloro-2-(2,6-dimethylthiomorpholino)pyrimidin-4-yl)amino)-2-cyclopropyl-3,3-difluoro-7-methyl-1,2,3,4-tetrahydro-[1,4]oxazepino[2,3-c]quinolin-6(7H)-one], the IC50 was 30.2 nM.

For `CC1CCN1c1ncc(Cl)c(Nc2ccc3c(c2)c2c(c(=O)n3C)OCC(F)(F)[C@H](C3CC3)N2)n1` (mixture of isomers) [Example 12x36, (2S)-10-((5-chloro-2-(2-methylazetidin-1-yl)pyrimidin-4-yl)amino)-2-cyclopropyl-3,3-difluoro-7-methyl-1,2,3,4-tetrahydro-[1,4]oxazepino[2,3-c]quinolin-6(7H)-one], the IC50 is 7.76 nM.

For the molecule `Cn1c(=O)c2c(c3cc(Nc4nc(N5CC(CF)C5)ncc4Cl)ccc31)N[C@@H](C1CC1)C(F)(F)CO2` [Example 12x35, (S)-10-((5-chloro-2-(3-(fluoromethyl)azetidin-1-yl)pyrimidin-4-yl)amino)-2-cyclopropyl-3,3-difluoro-7-methyl-1,2,3,4-tetrahydro-[1,4]oxazepino[2,3-c]quinolin-6(7H)-one], the IC50 is 5.37 nM.

With `C[C@H]1C[C@H](O)CN(c2ncc(Cl)c(Nc3ccc4c(c3)c3c(c(=O)n4C)OCC(F)(F)[C@H](C4CC4)N3)n2)C1` [Example 12x13, (S)-10-((5-chloro-2-((3S,5S)-3-hydroxy-5-methylpiperidin-1-yl)pyrimidin-4-yl)amino)-2-cyclopropyl-3,3-difluoro-7-methyl-1,2,3,4-tetrahydro-[1,4]oxazepino[2,3-c]quinolin-6(7H)-one], the IC50 is 5.62 nM.

In the case of `C[C@H]1CCN(c2ncc(Cl)c(Nc3ccc4c(c3)c3c(c(=O)n4C)OCC(F)(F)[C@H](C4CC4)N3)n2)C1` [Example 12x01, (S)-10-((5-chloro-2-((S)-3-methylpyrrolidin-1-yl)pyrimidin-4-yl)amino)-2-cyclopropyl-3,3-difluoro-7-methyl-1,2,3,4-tetrahydro-[1,4]oxazepino[2,3-c]quinolin-6(7H)-one], the IC50 was 26.9 nM.

On to `C[C@H]1C[C@@H](OCCN(C)C)CN(c2ncc(Cl)c(Nc3ccc4c(c3)c3c(c(=O)n4C)OCC(F)(F)[C@H](C4CC4)N3)n2)C1` [Example 12x28, (S)-10-((5-chloro-2-((3R,5S)-3-(2-(dimethylamino)ethoxy)-5-methylpiperidin-1-yl)pyrimidin-4-yl)amino)-2-cyclopropyl-3,3-difluoro-7-methyl-1,2,3,4-tetrahydro-[1,4]oxazepino[2,3-c]quinolin-6(7H)-one], for which the IC50 was 3.16 nM.

On to `CCCN(CCO)c1ncc(Cl)c(Nc2ccc3c(c2)c2c(c(=O)n3C)OCC(F)(F)[C@H](C3CC3)N2)n1` [Example 11k, (S)-10-((5-chloro-2-((2-hydroxyethyl)(propyl)amino)pyrimidin-4-yl)amino)-2-cyclopropyl-3,3-difluoro-7-methyl-1,2,3,4-tetrahydro-[1,4]oxazepino[2,3-c]quinolin-6(7H)-one], for which the IC50 is 9.77 nM.

Turning to `CN(C)[C@@H]1CCCN(c2ncc(Cl)c(Nc3ccc4c(c3)c3c(c(=O)n4C)OCC(F)(F)[C@H](C4CC4)N3)n2)C1` [Example 9i, (S)-10-((5-chloro-2-((R)-3-(dimethylamino)piperidin-1-yl)pyrimidin-4-yl)amino)-2-cyclopropyl-3,3-difluoro-7-methyl-1,2,3,4-tetrahydro-[1,4]oxazepino[2,3-c]quinolin-6(7H)-one], the IC50 was 2.69 nM.

As to `CCC1CCCN(c2ncc(Cl)c(Nc3ccc4c(c3)c3c(c(=O)n4C)OCC(F)(F)[C@H](C4CC4)N3)n2)C1` (mixture of isomers) [Example 11b, (S)-10-((5-chloro-2-((R)-3-ethylpiperidin-1-yl)pyrimidin-4-yl)amino)-2-cyclopropyl-3,3-difluoro-7-methyl-1,2,3,4-tetrahydro-[1,4]oxazepino[2,3-c]quinolin-6(7H)-one:(S)-10-((5-chloro-2-((S)-3-ethylpiperidin-1-yl)pyrimidin-4-yl)amino)-2-cyclopropyl-3,3-difluoro-7-methyl-1,2,3,4-tetrahydro-[1,4]oxazepino[2,3-c]quinolin-6(7H)-one (1:1)], the IC50 was 33.1 nM.

Take `[2H]C([2H])([2H])n1c(=O)c2c(c3cc(Nc4nc(N5C6CCC5COC6)ncc4Cl)cnc31)N[C@@H](C1CC1)C(F)(F)CO2` [Example 3a, (S)-10-((2-(3-oxa-8-azabicyclo[3.2.1]octan-8-yl)-5-chloropyrimidin-4-yl)amino)-2-cyclopropyl-3,3-difluoro-7-(methyl-d3)-1,2,3,4-tetrahydro-[1,4]oxazepino[2,3-c][1,8]naphthyridin-6(7H)-one]: the IC50 is 1.62 nM.

`Cn1c(=O)c2c(c3cc(Nc4nc(N5CCC(C#N)CC5)ncc4Cl)ccc31)N[C@@H](C1CC1)C(F)(F)CO2` [Example 12x38, (S)-1-(5-chloro-4-((2-cyclopropyl-3,3-difluoro-7-methyl-6-oxo-1,2,3,4,6,7-hexahydro-[1,4]oxazepino[2,3-c]quinolin-10-yl)amino)pyrimidin-2-yl)piperidine-4-carbonitrile]: the IC50 was 3.72 nM.
